Data taken from patent US12624018B1, “Inhibitors of RIPK2 and medical uses thereof” (Odyssey Therapeutics, Inc., priority 2022, dated 2026).

What follows are compounds tested against T1, RIPK2 enzyme (Homo sapiens, UniProt O43353) (assay: RIPK2 inhibition (ADP-Glo Kinase Assay)). Settings: RIPK2 5 nM, ATP 150 μM, MBP substrate, read-out: RIPK2 IC50.
T1 construct: purchased Carna 09-128
Assay type: biochemical
Outline: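 Human RIPK2 (5 nM) preincubated with compound 30 min at room temperature in 50 mM HEPES pH 7.5, 10 mM MgCl2, 2 mM DTT, 1 mM EGTA, 0.01% Brij-35, 0.05% BSA; native swine MBP as substrate. ADP formed quantified by ADP-Glo luminescence; percent inhibition relative to DMSO and no-enzyme controls.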

T1 sequence (O43353 1-299 limits assumed): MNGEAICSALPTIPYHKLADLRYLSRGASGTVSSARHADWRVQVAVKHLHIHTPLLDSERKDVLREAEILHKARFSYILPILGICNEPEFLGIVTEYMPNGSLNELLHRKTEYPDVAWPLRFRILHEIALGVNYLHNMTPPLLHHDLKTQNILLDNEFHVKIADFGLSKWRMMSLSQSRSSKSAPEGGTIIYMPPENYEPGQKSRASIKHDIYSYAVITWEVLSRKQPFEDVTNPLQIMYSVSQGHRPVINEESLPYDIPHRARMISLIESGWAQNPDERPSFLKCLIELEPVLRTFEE

Row | SMILES | IC50 [nM]
1 | COC(C)(C)c1ccc2nccc(Oc3cnc(CC(=O)Nc4cnn(C(C)(C)C)c4)c(F)c3)c2c1 [Compound 138, N-(1-(tert-butyl)-1H-pyrazol-4-yl)-2-(3-fluoro-5-((6-(2-methoxypropan-2-yl)quinolin-4-yl)oxy)pyridin-2-yl)acetamide] | 5.2
2 | CSc1ccc2nccc(Oc3cc(F)c(CC(=O)Nc4cnn(C(C)(C)C)c4)cc3C)c2c1 [Compound 459, N-(1-(tert-butyl)-1H-pyrazol-4-yl)-2-(2-fluoro-5-methyl-4-((6-(methylthio)quinolin-4-yl)oxy)phenyl)acetamide] | < 2.5
3 | Cc1cc(CC(=O)Nc2noc(C(C)(C)C)n2)ccc1Oc1ncnc2ccc(OC3CCN(C)CC3)cc12 [Compound 184, N-(5-(tert-butyl)-1,2,4-oxadiazol-3-yl)-2-(3-methyl-4-((6-((1-methylpiperidin-4-yl)oxy)quinazolin-4-yl)oxy)phenyl) acetamide] | 3
4 | CC(C)(C)c1cc(NC(=O)Cc2ncc(Oc3ccnc4ccc(OC5CCNCC5)cc34)cc2F)n[nH]1 [Compound 135, N-(5-(tert-butyl)-1H-pyrazol-3-yl)-2-(3-fluoro-5-((6-(piperidin-4-yloxy)quinolin-4-yl)oxy)pyridin-2-yl)acetamide] | < 2.5
5 | CC(C)(C)n1cc(NC(=O)Cc2ccc(Oc3ccnc4ccc(S(C)(=O)=NC#N)cc34)cc2F)cn1 (stereo not shown) [Compound 71, N-(1-(tert-butyl)-1H-pyrazol-4-yl)-2-(4-((6-(N-cyano-S-methylsulfonimidoyl)quinolin-4-yl)oxy)-2-fluorophenyl)acetamide] | 9.1
6 | Cc1cc(CC(=O)Nc2cnn(C(C)(C)C)c2)ccc1Oc1ccnc2ccc(C(=O)N3CC(C#N)C3)cc12 [Compound 209, N-(1-(tert-butyl)-1H-pyrazol-4-yl)-2-(4-((6-(3-cyano-azetidine-1-carbonyl)quinolin-4-yl)oxy)-3-methyl-phenyl) acetamide] | < 2.5
7 | Cc1c(Oc2ccnc3ccc(C(=O)N4CC(N)C4)cc23)ccc(CC(=O)Nc2cnn(C(C)(C)C)c2)c1F [Compound 349, 2-(4-((6-(3-amino-azetidine-1-carbonyl)quinolin-4-yl)oxy)-2-fluoro-3-methyl-phenyl)-N-(1-(tert-butyl)-1H-pyrazol-4-yl)acetamide] | < 2.5
8 | Cc1cc(CC(=O)Nc2cnn(C(C)(C)C)c2)ccc1Oc1ccnc2ccc(S(=O)(=O)C3CN(C)C3)cc12 [Compound 149, N-(1-(tert-butyl)-1H-pyrazol-4-yl)-2-(3-methyl-4-((6-((1-methylazetidin-3-yl)sulfonyl)quinolin-4-yl)oxy)phenyl)acetamide] | < 2.5
9 | Cc1cc(CC(=O)Nc2cnn(C(C)(C)C)c2)ccc1Oc1ccnc2ccc(N3CC(CN)OC3=O)cc12 (single isomer, unassigned) [Compound 319, 2-(4-((6-(5-(aminomethyl)-2-oxooxazolidin-3-yl)quinolin-4-yl)oxy)-3-methylphenyl)-N-(1-(tert-butyl)-1H-pyrazol-4-yl)acetamide] | < 2.5
10 | Cc1cc(CC(=O)Nc2cnn(C(C)(C)C)c2)ccc1Oc1ccnc2ccc(S(=O)(=O)C3CCNC3)cc12 (single isomer, unassigned) [Compound 201, N-(1-(tert-butyl)-1H-pyrazol-4-yl)-2-(3-methyl-4-((6-(pyrrolidin-3-ylsulfonyl)quinolin-4-yl)oxy)phenyl)acetamide] | < 2.5
11 | Cc1cc(CC(=O)Nc2cnn(C(C)(C)C)c2)ccc1Oc1ccnc2ccc(S(=O)(=O)C3CCOCC3)cc12 [Compound 98, N-(1-(tert-butyl)-1H-pyrazol-4-yl)-2-(3-methyl-4-((6-((tetrahydro-2H-pyran-4-yl)sulfonyl)quinolin-4-yl)oxy)phenyl)acetamide] | < 2.5
12 | COc1cc2nccc(Oc3ccc(CC(=O)Nc4cnn(C(C)(C)C)c4)c(F)c3C)c2cc1P(C)(C)=O [Compound 382, N-(1-(tert-butyl)-1H-pyrazol-4-yl)-2-(4-((6-(dimethylphosphoryl)-7-methoxyquinolin-4-yl)oxy)-2-fluoro-3-methylphenyl) acetamide] | < 2.5

Further lines, results first:

Row | IC50 [nM] | SMILES
13 | < 2.5 | [2H]C([2H])([2H])NC(=O)c1cc2c(Oc3ccc(CC(=O)Nc4cnn(C(C)(C)C)c4)cc3C)ccnc2cc1F [Compound 493, 4-(4-(2-((1-(tert-butyl)-1H-pyrazol-4-yl)amino)-2-oxoethyl)-2-methylphenoxy)-7-fluoro-N-(methyl-d3)quinoline-6-carboxamide]
14 | < 2.5 | Cc1cc(CC(=O)Nc2cnn(C(C)(C)C)c2)c(F)cc1Oc1ccnc2ccc(-c3c[nH]nc3O)cc12 [Compound 478, N-(1-(tert-butyl)-1H-pyrazol-4-yl)-2-(2-fluoro-4-((6-(3-hydroxy-1H-pyrazol-4-yl)quinolin-4-yl)oxy)-5-methylphenyl)acetamide]
15 | < 2.5 | Cc1cc(CC(=O)Nc2cnn(C(C)(C)C)c2)ccc1Oc1ccnc2cc(F)c(S(=N)(=O)C3CC3)cc12 (single isomer, unassigned) [Compound 554, N-(1-(tert-butyl)-1H-pyrazol-4-yl)-2-(4-((6-(cyclopropane-sulfonimidoyl)-7-fluoroquinolin-4-yl)oxy)-3-methylphenyl) acetamide]
16 | < 2.5 | Cc1cc(CC(=O)Nc2cnn(C(C)(C)C)c2)ccc1Oc1ccnc2ccc(S(=O)(=O)C(C)C)cc12 [Compound 206, N-(1-(tert-butyl)-1H-pyrazol-4-yl)-2-(4-((6-(isopropylsulfonyl)quinolin-4-yl)oxy)-3-methylphenyl)acetamide]
17 | < 2.5 | Cc1cc(CC(=O)Nc2cnn(C(C)(C)C)c2)ccc1Oc1ccnc2ccc(O[C@H]3CC[C@H](N)CC3)cc12 [Compound 122, 2-(4-((6-(((1r,4r)-4-aminocyclohexyl)oxy)quinolin-4-yl)oxy)-3-methylphenyl)-N-(1-(tert-butyl)-1H-pyrazol-4-yl)acetamide]
18 | < 2.5 | [2H]C([2H])([2H])c1cc(CC(=O)Nc2cnn(C(C)(C)C)c2)ccc1Oc1ccnc2ccc(OC3CCNCC3)cc12 [Compound 104, N-(1-(tert-butyl)-1H-pyrazol-4-yl)-2-(3-(methyl-d3)-4-((6-(piperidin-4-yloxy)quinolin-4-yl)oxy)phenyl) acetamide]
19 | < 2.5 | Cc1cc(CC(=O)Nc2cnn(C(C)(C)C)c2)c(F)cc1Oc1ccnc2ccc(C(=O)NC3COC3)cc12 [Compound 392, 4-(4-(2-((1-(tert-butyl)-1H-pyrazol-4-yl)amino)-2-oxoethyl)-5-fluoro-2-methyl-phenoxy)-N-(oxetan-3-yl)quinoline-6-carboxamide]
20 | < 2.5 | Cc1cc(CC(=O)Nc2cnn(C(C)(C)C)c2)ccc1Oc1ccnc2ccc(S(=O)(=O)CC(C)(C)O)cc12 [Compound 309, N-(1-(tert-butyl)-1H-pyrazol-4-yl)-2-(4-((6-((2-hydroxy-2-methylpropyl)sulfonyl)quinolin-4-yl)oxy)-3-methylphenyl)acetamide]
21 | < 2.5 | Cc1c(Oc2ccnc3ccc(C(=O)N4CC(C#N)C4)cc23)ccc(CC(=O)Nc2cnn(C(C)(C)C)c2)c1F [Compound 346, N-(1-(tert-butyl)-1H-pyrazol-4-yl)-2-(4-((6-(3-cyano-azetidine-1-carbonyl)quinolin-4-yl)oxy)-2-fluoro-3-methylphenyl) acetamide]
22 | < 2.5 | Cc1cc(CC(=O)Nc2cnn(C(C)(C)C)c2)c(F)cc1Oc1ccnc2ccc(S(=O)(=O)C3CNC3)cc12 [Compound 316, 2-(4-((6-(azetidin-3-ylsulfonyl)quinolin-4-yl)oxy)-2-fluoro-5-methylphenyl)-N-(1-(tert-butyl)-1H-pyrazol-4-yl)acetamide]

These compounds were tested on human NOD2 signaling (assay: Inhibition of human NOD2 signaling in HEK-Blue-hNOD2 cells (L18-MDP stimulated, SEAP reporter)). Settings: HEK-Blue-hNOD2 cells, NOD2 ligand stimulation, SEAP reporter; read-out: hNOD2 IC50.
Assay type: cell-based
Protocol: Materials: Human NOD32-expressing 1TEK293 cells, HEK-Blue™-hNOD2 cells, were developed by Invivogen (catalogue number: hkb-hnod2) using co-transfection of the human NOD2 gene and an optimized secreted embryonic alkaline phosphatase (SEAP) reporter gene into HTEK293 cells. The cell maintenance medium consisted of DMEM (Giboc, 21063-029), heat inactivated FBS, penicillin (100 U/mL), streptomycin (100 μg/mL), Normocin (100 μg/mL), Blasticidin (30 μg/mL), and Zeocin (100 μg/mL). HEK-Blue™-hNOD2 cells were transferred to assay medium consisting of DMEM (Giboc, 21063-029), heat inactivated FBS, penicillin (100 U/mL) and streptomycin (100 μg/mL) prior to stimulation. Stimulation with a NOD2 ligand, L18-MDP (Invivogen, catalogue number: tlrl-lmdp) activated NF-κB and AP-1 which induced the production of SEAP. Levels of SEAP were determined with HEK-Blue™ Detection (referred to as QUANTI-Blue solution), a cell culture medium that allows for real-time detection of SEAP. QUANTI-Blue solution was prepared by adding 1 mL of QB reagent and 1 mL of QB buffer to 98 mL of sterile H2O. Test compounds were prepared into a 10 mM DMSO solution and were serially diluted into 10 points using a 3-fold dilution in a 384 well plate using a TECAN EVO200.
Method: In a 384 well plate, 40 nL of test compound was dispensed using Echo550. HEK-Blue™-hNOD2 cells (Invivogen) were prepared into a cell suspension and 40 μL of the cell suspension (12500 cells per well) was dispensed into the 384 well plate. To activate NOD2 signaling, 40 nL of L18-MDP (final concentration of 0.5 ng/mL) was added and the plate was incubated at 37° C. in a CO2 incubator for 24 hours. After the 24-hour incubation, 5 μL of the induced HEK-Blue hNOD2 cell supernatant was transferred to a new 384-well plate, centrifuged, and 45 μL of QUANTI-Blue solution was added per well and incubated for 3 hours at 37° C. SEAP levels were measured using an Ensight at 620 nm. Percent inhibition of NOD2 signaling was determined using the following equation: (high control−test compound signal)/(High control−low control)×100. The reaction high control was determined using wells with DMSO, cells, L18-MDP, and QUANTI-Blue solution. The reaction low control was determined using wells with DMSO, cells, and QUANTI-Blue solution. 4-parametric curve fit was used to determine the test compound concentration that results in 50% reduction of L18-MDP-driven human NOD2 signaling.
Using the assay described above, inhibition of hNOD2 signaling was also evaluated for GSK 2983559 (Haile at al., J. Med. Chem. 2019, 62, 14, 6482-6494), a known RIPK2 kinase inhibitor: […]

Row | IC50 [nM] | SMILES
23 | 4.9 | Cc1cc(CC(=O)Nc2cnn(C(C)(C)C)c2)ccc1Oc1ccnc2cc(F)c(S(=N)(=O)C3CC3)cc12 (single isomer, unassigned) [Compound 554, N-(1-(tert-butyl)-1H-pyrazol-4-yl)-2-(4-((6-(cyclopropane-sulfonimidoyl)-7-fluoroquinolin-4-yl)oxy)-3-methylphenyl) acetamide]

Same assay, conditions: Homo sapiens, HEK-Blue hNOD2, HEK-Blue-hNOD2 cells, NOD2 ligand stimulation, SEAP reporter; read-out: hNOD2 IC50

Row | IC50 [nM] | SMILES
24 | 0.2 | [2H]C([2H])([2H])NC(=O)c1cc2c(Oc3ccc(CC(=O)Nc4cnn(C(C)(C)C)c4)cc3C)ccnc2cc1F [Compound 493, 4-(4-(2-((1-(tert-butyl)-1H-pyrazol-4-yl)amino)-2-oxoethyl)-2-methylphenoxy)-7-fluoro-N-(methyl-d3)quinoline-6-carboxamide]
25 | 26 | Cc1cc(CC(=O)Nc2cnn(C(C)(C)C)c2)c(F)cc1Oc1ccnc2ccc(-c3c[nH]nc3O)cc12 [Compound 478, N-(1-(tert-butyl)-1H-pyrazol-4-yl)-2-(2-fluoro-4-((6-(3-hydroxy-1H-pyrazol-4-yl)quinolin-4-yl)oxy)-5-methylphenyl)acetamide]
